For 50 compounds, AC50, CC50 and EC50 results are on record in ChEMBL document CHEMBL1201862, “PubChem BioAssay data set” (2004).

The target of one experiment is T1, Cytochrome P450 1A2 (Homo sapiens, UniProt P05177).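 Further: PubChem cytochrome P450 panel assay, CYP1A2 panel member.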
T1 sequence (P05177 whole entry): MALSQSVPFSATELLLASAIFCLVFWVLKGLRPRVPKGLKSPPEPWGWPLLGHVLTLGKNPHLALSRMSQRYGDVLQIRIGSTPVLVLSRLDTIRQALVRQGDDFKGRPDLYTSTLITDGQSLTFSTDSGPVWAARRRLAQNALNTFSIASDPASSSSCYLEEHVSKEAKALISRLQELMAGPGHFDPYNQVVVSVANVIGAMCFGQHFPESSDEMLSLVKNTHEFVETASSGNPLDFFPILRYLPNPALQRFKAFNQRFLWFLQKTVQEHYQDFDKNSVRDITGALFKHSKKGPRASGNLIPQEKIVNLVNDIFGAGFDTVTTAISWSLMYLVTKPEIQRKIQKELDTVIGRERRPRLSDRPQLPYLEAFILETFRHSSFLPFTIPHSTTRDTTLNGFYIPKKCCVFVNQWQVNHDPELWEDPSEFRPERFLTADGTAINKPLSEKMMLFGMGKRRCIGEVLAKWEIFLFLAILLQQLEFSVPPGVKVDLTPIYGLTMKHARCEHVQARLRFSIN

A short description of experiment [1]: HEp-2 cell cytotoxicity, dose response, cytotoxicity control for RSV inhibitor project, HTS (AID 2410). It is filed as functional. The note with it: human respiratory syncytial virus.
A short description of experiment [2]: cytotoxicity toward NIH3T3 fibroblasts, dose response, counter-screen, cell-based, ATP luminescence, mouse fibroblasts (AID 2010).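 Further: cells exposed to compound for about 90 hours before reading.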 It is filed as functional. (In general: A counterscreen serves to expose hits that act by an unwanted route or on another target.)
Experiment [3] in a line: inhibitors of intracellular T. cruzi replication, confirmation, NIH3T3 host cells, beta-gal luminescence (AID 2044).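 Further: intracellular parasites grown in NIH/3T3 mouse fibroblasts as host cells; luminescent beta-galactosidase reporter signal from transgenic T. cruzi replicating inside host cells; inhibitors lower the luminescence signal.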 It is filed as functional, cell-based.
For a further experiment, the system named is Streptococcus. Nature of the experiment: Group A Streptococcus viability loss, dose response, counter-screen for streptokinase expression inhibitor project, luminescence, BacTiterGlo (AID 1915).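 Further: potency for reduction of bacterial viability or growth.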 The class given is functional, organism-based.
The test system of experiment [4] is Streptococcus sp. 'group A'. Description: growth inhibition of control SK(-) GAS strain, dose response, counter-screen for streptokinase expression inhibitor project, luminescence, kanamycin, BacTiterGlo, confirmation (AID 1900). The class given is functional, organism-based.
The next experiment concerns H4. Nature of the experiment: Luminescence Cell-Based Dose Response HTS to Identify Activators of 5'UTR Stem-Loop Driven Prion Protein mRNA Translation in H4 Neuroglioblastoma Cells. [Related pubchem assays: 1829 (Project Summary), 1814 (Primary HTS)]. It is filed as functional. The conditions noted are these: Homo sapiens.
The nature of experiment [5]: Luminescence Cell-Based Dose Response HTS to Identify Activators of Luciferase Translation or Activity in H4 […] Cells. [Related pubchem assays: 1829 (Project Summary), 1814 (Primary HTS)]. It is filed as functional.
The target in another experiment is Cytochrome P450 3A4 (Homo sapiens, UniProt P08684).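 Further: CYP3A4 tested as one member of a cytochrome P450 panel screen.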
Experiment [6] concerns the target T2, Corticotropin-releasing factor receptor 2/Corticotropin-releasing factor-binding protein (Homo sapiens, UniProt P24387+Q13324).
T2 sequence (Q13324 whole entry): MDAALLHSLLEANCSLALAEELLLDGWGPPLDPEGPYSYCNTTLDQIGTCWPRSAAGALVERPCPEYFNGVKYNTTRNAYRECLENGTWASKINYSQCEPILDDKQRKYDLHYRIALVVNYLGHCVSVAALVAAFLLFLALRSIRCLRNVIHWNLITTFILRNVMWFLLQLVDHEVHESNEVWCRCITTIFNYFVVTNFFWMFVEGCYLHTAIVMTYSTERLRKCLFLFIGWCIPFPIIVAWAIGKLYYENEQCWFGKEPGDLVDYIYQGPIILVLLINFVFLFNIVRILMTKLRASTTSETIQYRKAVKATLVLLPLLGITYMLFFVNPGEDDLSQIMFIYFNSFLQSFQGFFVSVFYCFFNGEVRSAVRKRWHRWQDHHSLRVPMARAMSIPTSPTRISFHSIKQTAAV
T2 sequence (P24387 whole entry): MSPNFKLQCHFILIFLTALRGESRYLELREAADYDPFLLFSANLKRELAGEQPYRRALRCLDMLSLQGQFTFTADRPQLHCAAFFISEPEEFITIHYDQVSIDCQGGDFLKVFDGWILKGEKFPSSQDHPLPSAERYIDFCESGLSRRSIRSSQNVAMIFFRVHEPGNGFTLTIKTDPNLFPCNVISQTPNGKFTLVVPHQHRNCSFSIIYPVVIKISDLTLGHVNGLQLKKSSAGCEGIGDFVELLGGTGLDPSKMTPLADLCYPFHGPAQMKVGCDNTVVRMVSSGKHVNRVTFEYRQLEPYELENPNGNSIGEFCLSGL
Description: activators of CRF receptor 2 with binding protein – uHTS hits, confirmation (AID 602473). It is filed as functional. The note with it: read-out: EC50_Mean.

Experiment [7] is described as follows: growth suppression of PTEN-null colon cells, dose response, cell-based, HCT116 PTEN knockout (AID 1047).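 Further: HCT116 colon tumor cells with PTEN knocked out; cells exposed to compound for 60 hours before readout; potency for loss of cell viability measured by luminescence.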 It is filed as functional.
A short description of experiment [8]: growth suppression of beta-catenin-knockout colon cells, dose response, cell-based, HCT116, human colon tumor (AID 1045).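 Further: HCT116 colon tumor cells with beta catenin knocked out; cells exposed to compound for 60 hours.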 The class given is functional.

Activity calls are given as the source filed them. For most assays here, no stated cut-off is given here; in the data, actives have a measured EC50 and inactives only a lower limit.

Chain of Cytochrome P450 3A4 (P08684 whole entry): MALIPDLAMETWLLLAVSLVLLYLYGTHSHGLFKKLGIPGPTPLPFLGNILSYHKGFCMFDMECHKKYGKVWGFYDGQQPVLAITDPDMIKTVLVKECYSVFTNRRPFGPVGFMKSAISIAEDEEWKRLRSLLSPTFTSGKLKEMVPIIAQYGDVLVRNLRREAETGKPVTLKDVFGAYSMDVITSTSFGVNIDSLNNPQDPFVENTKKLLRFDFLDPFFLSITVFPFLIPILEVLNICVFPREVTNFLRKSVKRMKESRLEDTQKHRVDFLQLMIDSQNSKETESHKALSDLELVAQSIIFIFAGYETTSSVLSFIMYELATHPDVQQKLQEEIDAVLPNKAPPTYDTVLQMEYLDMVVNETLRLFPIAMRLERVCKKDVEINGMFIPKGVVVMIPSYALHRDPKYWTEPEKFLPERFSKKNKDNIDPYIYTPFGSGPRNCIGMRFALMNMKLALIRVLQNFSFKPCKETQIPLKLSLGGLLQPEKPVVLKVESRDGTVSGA

For orientation: AC50 means the midpoint of the concentration-response curve, whichever way the signal moves. With `COc1ccc(/C=N\NC(=O)O)cc1`, on Cytochrome P450 1A2, the AC50 is 0.501 µM (inconclusive). By CC50 is commonly meant the concentration at which the toxic effect on the cells reaches its halfway point. As to `CCCn1c(C(C)Nc2nc(-c3ccc(C)cc3)cs2)nc2ccccc21` (centres undefined), the half-maximal cytotoxic concentration (CC50) in experiment [1] was 15.2 µM (active).

Turning to `S=C(NC1CCCCC1)N1CCn2cccc2C1c1cccnc1` (centres undefined), the EC50 is > 60 µM (not active) in [2] and 0.379 µM (active) in experiment [3]. Consider `CCSc1nnc2nc3c(c(O)n12)C1(CCCC1)Cc1ccccc1-3`, for which the EC50 (in the experiment on Streptococcus; in experiment [4]) was 8.43 µM (active) in each case.

Consider `CC(C)(C)C(=O)Cn1c(=N)n(Cc2ccccc2Cl)c2ccccc21`, for which the EC50 in experiment [2] is > 60 µM (not active); in experiment [3] it was 2.39 µM (active). With `CN1CCN(c2ccc(-c3ccnn3C(=O)Nc3cccc(C(F)(F)F)c3)cc2)CC1`, the EC50 with H4 was 5.98 µM (active); in experiment [5], 3.08 µM (active). For the compound `COc1ccc(CCNC(=O)COc2ccc(S(=O)(=O)NC3CCCCC3)cc2Cl)cc1`, on Cytochrome P450 1A2, the half-maximal activity concentration (AC50) was 25.1 µM (inconclusive). As for `CCc1cccc2cc3c(N)c(C(=O)Nc4ccc(S(=O)(=O)N5CCCC5)cc4)sc3nc12`, the cytotoxic concentration (CC50) in experiment [1] is 38 µM (active).

With `N#CC1=C(N)Oc2c(c(=O)sc3ccccc23)C1c1cccnc1` (centres undefined), the EC50 was 8.85 µM (active) in [2] and 0.536 µM (active) in experiment [3]. Regarding `[O-][n+]1c(CN2CCCCC2)nc2cccc3c2c1-c1ccccc1-3`, on Cytochrome P450 3A4, the AC50 was 3.16 µM (inconclusive). Take `COc1ccc(-c2oc(/N=C/N3CCCC3)c(C#N)c2-c2ccc(OC)cc2)cc1`: the EC50 in experiment [2] was > 60 µM (not active); in experiment [3] it was 1.75 µM (active).

Turning to `COc1ccc2[nH]cc(C(=O)CN3CCCCC3)c2c1`, in experiment [6], the EC50 was > 53 µM (inactive). Consider `N=c1c2c(-c3ccccc3)c(-c3ccccc3)n(Cc3ccco3)c2ncn1CCN1CCOCC1`, for which the EC50 was 7.92 µM (active) in [7], > 60 µM (not active) in experiment [2], 1.53 µM (active) in [3] and 8.19 µM (active) in experiment [8]. In the case of `COc1ccc(Cl)cc1NC(=O)CSc1nnc(Cc2cccn2C)n1-c1ccc(F)cc1`, the EC50 was 80.8 µM (active) in experiment [7] and 72.9 µM (active) in experiment [8]. With `NNC(=O)CNc1cccc(Br)c1`, on Cytochrome P450 3A4, the AC50 is 2.51 µM (inconclusive). In the case of `Cc1cccc(N2CCN(c3nc4ccc(Cl)cc4n4cnnc34)CC2)c1C`, the EC50 was 19.1 µM (active) in experiment [7] and 20 µM (active) in [8]. Regarding `COc1ccc2c(c1)OC[C@H]1[C@H]2N2C(=O)CN(Cc3ccc(F)cc3)C(=O)[C@@]2(C)[C@H]1c1ccccc1`, the CC50 in experiment [1] was 16.4 µM (active). On to `Cc1c(NC(=O)c2cc3c(s2)-c2ccccc2OC3)cccc1[N+](=O)[O-]`, for which, in [1], the CC50 was 6.43 µM (active). Consider `Cc1ccc(NC(=O)N(Cc2ccco2)Cc2cc3cc(C)cc(C)c3nc2Cl)cc1`, for which the EC50 in [2] is > 30 µM (not active); in experiment [3] it was 2.78 µM (active). As to `CN1/C(=C\C=C(/C#N)C(=O)Nc2ccccc2F)C(C)(C)c2ccccc21`, the EC50 in [6] is 5.05 µM (active).

As for `Oc1nc(-c2ccccc2)n(-c2ccc(Cl)cc2)n1`, the EC50 in experiment [6] was > 53 µM (inactive). With `COc1cc(/C=C(\C#N)c2nc3ccccc3s2)ccc1OCC(=O)Nc1ccccc1`, the EC50 is 25.2 µM (active) in experiment [7] and 560 µM (active) in [8]. As to `COc1ccc(-n2c(=O)c(-c3ccc(F)cc3)nc3cnc(OC)nc32)cc1`, on Cytochrome P450 3A4, the concentration at half-maximal activity (AC50) is 15.8 µM (inconclusive). For `CSCCC(NC(=O)c1ccco1)C(=O)OCc1cc([N+](=O)[O-])cc2c1OCOC2` (centres undefined), the EC50 in experiment [6] was 6.29 µM (active). Regarding `O=C(Nc1ccc(Cl)cc1)N1CCCN(Cc2ccc(F)cc2)C1`, the EC50 in [7] is 17.2 µM (active); in [8], 16.4 µM (active). Regarding `O=[N+]([O-])c1cc([N+](=O)[O-])c2[nH]nc(-c3ccccc3)c2c1`, the EC50 in [2] was > 60 µM (not active); in experiment [3], 1.47 µM (active). For `O=c1[nH]c(=O)n(-c2ccccc2)c2c1C(C(F)(F)F)(C(F)(F)F)NC(CCC1CCCCC1)=N2`, in [6], the EC50 was 7.07 µM (active). For `C[C@@H](C1=C(CCN(C)C)Cc2ccccc21)c1ccccn1`, at Cytochrome P450 1A2, the AC50 was 20 µM (inconclusive). Regarding `Cc1c(/C=N\NC(=O)C2COc3ccc(C(C)(C)C)cc3O2)c2ccccc2n1C` (centres undefined), the EC50 was > 60 µM (not active) in experiment [2] and 2.25 µM (active) in experiment [3]. In the case of `FC(F)(F)c1ccc2c(c1)nc(S)n2C1CC1`, the CC50 in experiment [1] was 34.1 µM (active). On the same count and under the same terms, to `Nc1nc2nc(-c3ccccc3)cc(C(F)(F)F)c2s1` belongs 35.5 µM (active); to `CCOc1ccccc1C(=O)Nc1cccc2cccnc12`, 30.4 µM (active). As to `O=C(Nc1ccc(N2CCN(C(=O)c3ccc(Cl)cc3)CC2)cc1)c1ccc(Br)o1`, the EC50 is > 60 µM (not active) in [2] and 4.09 µM (active) in experiment [3]. As to `O=C(Nc1ccc2nn(-c3ccccc3)nc2c1)c1cccnc1`, in experiment [1], the CC50 was > 50 µM (active).

In the case of `COc1ccccc1NS(=O)(=O)c1cc(NC(=O)c2cccs2)ccc1N1CCCCC1`, the EC50 was > 30 µM (not active) in [2] and 1.23 µM (active) in experiment [3]. Take `NS(=O)(=O)c1ccc(/N=N\c2nc3c(S)ncnc3[nH]2)cc1`: the concentration at half-maximal activity (AC50) at Cytochrome P450 1A2 was 6.31 µM (inconclusive).

Turning to `COc1ccccc1OCCCn1cc(C=O)c2ccccc21`, in [1], the CC50 was 8.95 µM (active). On to `COC(=O)c1sccc1NC(=O)/C=C/c1ccc(Cl)cc1Cl`, for which the results for the EC50 in experiment [7] and in experiment [8] were 13.8 µM (active) and 51.4 µM (active), respectively. `O=C(CCCN1C(=O)/C(=C/c2ccccc2Cl)SC1=S)N1CCCC1`: in experiment [1], the half-maximal cytotoxic concentration (CC50) is 15.5 µM (active). Turning to `Cc1ncc(C/N=C\c2ccc(Cl)cc2)c(N)n1`, the AC50 at Cytochrome P450 1A2 was 5.01 µM (inconclusive). On to `O=C(c1ccc(COc2ccccc2Cl)o1)N1CCN(c2ccccc2)CC1`, for which the CC50 in [1] was 13.4 µM (active). In the case of `CN(C)CCCNc1c2c(nc3cc(-c4cccc(F)c4)nn13)CCC2`, the EC50 in experiment [2] is > 60 µM (not active); in experiment [3], 0.181 µM (active). For `COc1cccc(-c2nnc(Nc3nc4c(F)cccc4s3)o2)c1`, the EC50 in the experiment on Streptococcus is 26.2 µM (active); in [4], 0.767 µM (active). With `Cc1nc2nc(-c3ccccc3)nn2c(C)c1C`, in experiment [1], the cytotoxic concentration (CC50) is 39.4 µM (active). As for `Cc1cccc(Nc2nc(N3CCOCC3)nc(N3CCOCC3)n2)c1`, the EC50 was 5.8 µM (active) in [2] and 0.465 µM (active) in [3].

For the compound `O=C(O)c1[nH]c2c([N+](=O)[O-])cc([N+](=O)[O-])cc2c1C(=O)O`, at Cytochrome P450 1A2, the half-maximal activity concentration (AC50) is 0.126 µM (inconclusive). On to `Cc1cc(O)n2nc(Nc3cccc(Cl)c3)nc2n1`, for which, in experiment [6], the EC50 was > 53 µM (inactive). For `C[C@@H](C(=O)Nc1ccc2ccccc2c1)[C@H]1C[C@]1(C)[C@H](NS(=O)(=O)c1ccc(-c2ccccc2)cc1)c1ccccc1`, the AC50 on Cytochrome P450 1A2 was 15.8 µM (inconclusive). On to `CCn1cc(C(=O)NCc2ccc3c(c2)OCO3)c(=O)c2cc(F)c(N3CCN(C)CC3)cc21`, for which the EC50 in experiment [2] is > 60 µM (not active); in [3] it was 1.16 µM (active). Take `CCOc1ccc(CN2CCN(Cc3nc(C(C)C)cs3)CC2CCO)cc1` (centres undefined): the EC50 in experiment [2] was > 60 µM (not active); in experiment [3], 0.845 µM (active).
